Measurements reported in ChEMBL document CHEMBL3352413, “4-Amino-2-arylamino-6-(2,6-dichlorophenyl)-pyrido[2,3-d]pyrimidin-7-(8H)-ones as BCR kinase inhibitors for B lymphoid malignancies” (Eur J Med Chem, 2014).
Activity calls are given as the source filed them. The rule behind the calls is not given here.

Columns and labels:
[1] = molecular target: Tyrosine-protein kinase BTK (Homo sapiens) (UniProt Q06187); test: Inhibition of BTK (unknown origin) assessed as enzyme residual activity at 10 uM by radiometric protein kinase assay
Tyrosine-protein kinase BTK (Homo sapiens), sequence (Q06187 whole entry): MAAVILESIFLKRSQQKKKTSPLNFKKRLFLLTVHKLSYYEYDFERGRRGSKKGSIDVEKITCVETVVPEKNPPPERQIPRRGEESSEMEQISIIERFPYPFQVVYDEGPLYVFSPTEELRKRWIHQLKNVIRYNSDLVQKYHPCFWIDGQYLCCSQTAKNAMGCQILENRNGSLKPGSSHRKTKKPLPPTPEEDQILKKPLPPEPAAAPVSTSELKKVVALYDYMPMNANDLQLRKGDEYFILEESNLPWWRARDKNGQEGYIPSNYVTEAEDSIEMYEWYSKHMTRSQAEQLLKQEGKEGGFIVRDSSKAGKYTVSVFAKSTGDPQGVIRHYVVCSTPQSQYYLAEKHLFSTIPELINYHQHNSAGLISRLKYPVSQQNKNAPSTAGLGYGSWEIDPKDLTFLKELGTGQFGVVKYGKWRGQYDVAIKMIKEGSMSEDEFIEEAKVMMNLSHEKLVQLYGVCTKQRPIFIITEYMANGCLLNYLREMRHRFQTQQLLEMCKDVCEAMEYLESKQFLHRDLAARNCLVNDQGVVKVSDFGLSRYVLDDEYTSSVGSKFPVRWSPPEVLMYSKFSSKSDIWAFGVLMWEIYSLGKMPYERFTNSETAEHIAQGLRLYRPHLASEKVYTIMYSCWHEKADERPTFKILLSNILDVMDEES

[2] = molecular target: Tyrosine-protein kinase BTK (Homo sapiens) (UniProt Q06187); test: Inhibition of BTK phosphorylation in human Rec1 cells at 5 uM incubated for 6 hrs by Western blotting method; assay type: cell-based
[3] = molecular target: Tyrosine-protein kinase BTK (Homo sapiens) (UniProt Q06187); test: Inhibition of BTK phosphorylation in human Rec1 cells at 1 uM incubated for 6 hrs by Western blotting method; assay type: cell-based
[4] = molecular target: Tyrosine-protein kinase Lyn (Homo sapiens) (UniProt P07948); test: Inhibition of Lyn phosphorylation in human Rec1 cells at 0.1 to 5 uM incubated for 6 hrs by Western blotting method; assay type: cell-based
Tyrosine-protein kinase Lyn (Homo sapiens), sequence (P07948 2-512 limits assumed): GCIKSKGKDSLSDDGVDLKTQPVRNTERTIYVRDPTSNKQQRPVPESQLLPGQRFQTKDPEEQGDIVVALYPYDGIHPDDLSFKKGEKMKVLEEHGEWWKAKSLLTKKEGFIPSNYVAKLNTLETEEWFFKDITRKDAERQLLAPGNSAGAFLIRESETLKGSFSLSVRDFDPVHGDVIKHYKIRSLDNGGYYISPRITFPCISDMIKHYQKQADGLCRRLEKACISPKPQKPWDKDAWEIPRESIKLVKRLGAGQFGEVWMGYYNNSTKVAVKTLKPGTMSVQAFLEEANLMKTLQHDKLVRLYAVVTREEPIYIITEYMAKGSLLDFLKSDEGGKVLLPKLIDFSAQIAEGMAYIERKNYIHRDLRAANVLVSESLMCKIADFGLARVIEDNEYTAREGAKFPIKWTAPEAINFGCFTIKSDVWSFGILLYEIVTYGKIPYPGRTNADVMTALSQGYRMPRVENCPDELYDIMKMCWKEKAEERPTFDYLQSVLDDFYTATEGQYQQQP

[5] = molecular target: Tyrosine-protein kinase Lyn (Homo sapiens) (UniProt P07948); test: Inhibition of Lyn (unknown origin) assessed as enzyme residual activity at 10 uM by radiometric protein kinase assay
[6] = molecular target: Tyrosine-protein kinase SYK (Homo sapiens) (UniProt P43405); test: Inhibition of Syk phosphorylation in human Rec1 cells at 0.1 to 5 uM incubated for 6 hrs by Western blotting method; assay type: cell-based
[7] = molecular target: Tyrosine-protein kinase Lyn (Homo sapiens) (UniProt P07948); test: Inhibition of Lyn phosphorylation in human Rec1 cells at 2.5 uM incubated for 6 hrs by Western blotting method; assay type: cell-based
[8] = molecular target: Tyrosine-protein kinase SYK (Homo sapiens) (UniProt P43405); test: Inhibition of Syk (unknown origin) assessed as enzyme residual activity at 10 uM by radiometric protein kinase assay
[9] = Growth inhibition of human HBL2 cells after 24 hrs by MTT assay; assay type: functional; settings: HBL2, 24 h
[10] = Growth inhibition of human HBL2 cells after 48 hrs by MTT assay; assay type: functional; settings: HBL2, 48 h
[11] = Growth inhibition of human Rec1 cells after 24 hrs by MTT assay; assay type: functional; settings: Rec1, 24 h
[12] = Growth inhibition of human Rec1 cells after 48 hrs by MTT assay; assay type: functional; settings: Rec1, 48 h
[13] = Growth inhibition of human UPN1 cells after 48 hrs by MTT assay; assay type: functional; settings: UPN1, 48 h
WSU-NHL [14] = test: Growth inhibition of human WSU-NHL cells after 48 hrs by MTT assay; assay type: functional
[15] = Growth inhibition of human SC1 cells after 24 hrs by MTT assay; assay type: functional; settings: SC-1, 24 h
[16] = Growth inhibition of human WSU-FSCCL cells after 48 hrs by MTT assay; assay type: functional
[17] = Growth inhibition of human MEC2 cells after 24 hrs by MTT assay; assay type: functional; settings: MEC2, 24 h
[18] = Growth inhibition of human Maver1 cells after 48 hrs by MTT assay; assay type: functional; settings: Maver1, 48 h
[19] = Growth inhibition of human GRANTA-519 cells after 24 hrs by MTT assay; assay type: functional; settings: Granta-519, 24 h
[20] = Growth inhibition of human DOHH2 cells after 48 hrs by MTT assay; assay type: functional; settings: DOHH-2, 48 h
[21] = Growth inhibition of human OCI-Ly8 cells after 48 hrs by MTT assay; assay type: functional; settings: OCI-Ly8, 48 h
[22] = Growth inhibition of human SUDHL8 cells after 24 hrs by MTT assay; assay type: functional; settings: SU-DHL-8, 24 h
WSU-NHL [23] = test: Growth inhibition of human WSU-NHL cells after 24 hrs by MTT assay; assay type: functional
[24] = Growth inhibition of human JeKo1 cells after 24 hrs by MTT assay; assay type: functional; settings: JeKo-1, 24 h
[25] = Growth inhibition of human Mino cells after 24 hrs by MTT assay; assay type: functional
[26] = Growth inhibition of human JVM2 cells after 24 hrs by MTT assay; assay type: functional; settings: JVM-2, 24 h
[27] = Growth inhibition of human SUDHL16 cells after 48 hrs by MTT assay; assay type: functional; settings: SU-DHL-16, 48 h
[28] = Inhibition of cell proliferation of human Rec1 cells at 5 uM after 24 hrs by MTT assay; assay type: functional; settings: Rec1, 24 h
[29] = Growth inhibition of human Z138C cells after 48 hrs by MTT assay; assay type: functional
[30] = Growth inhibition of human WSU-FSCCL cells after 24 hrs by MTT assay; assay type: functional
[31] = Growth inhibition of human JVM13 cells after 48 hrs by MTT assay; assay type: functional; settings: JVM13, 48 h
[32] = Growth inhibition of human JVM2 cells after 48 hrs by MTT assay; assay type: functional; settings: JVM-2, 48 h
[33] = Growth inhibition of human MEC2 cells after 48 hrs by MTT assay; assay type: functional; settings: MEC2, 48 h
[34] = Growth inhibition of human JVM13 cells after 24 hrs by MTT assay; assay type: functional; settings: JVM13, 24 h
[35] = Growth inhibition of human Mino cells after 48 hrs by MTT assay; assay type: functional
[36] = Growth inhibition of human MEC1 cells after 24 hrs by MTT assay; assay type: functional; settings: MEC1, 24 h
[37] = Growth inhibition of human SUDHL8 cells after 48 hrs by MTT assay; assay type: functional; settings: SU-DHL-8, 48 h
[38] = Growth inhibition of human U2932 cells after 24 hrs by MTT assay; assay type: functional; settings: U2932, 24 h
[39] = Growth inhibition of human JeKo1 cells after 48 hrs by MTT assay; assay type: functional; settings: JeKo-1, 48 h
[40] = Growth inhibition of human Z138C cells after 24 hrs by MTT assay; assay type: functional
[41] = Growth inhibition of human SUDHL16 cells after 24 hrs by MTT assay; assay type: functional; settings: SU-DHL-16, 24 h
[42] = Growth inhibition of human MEC1 cells after 48 hrs by MTT assay; assay type: functional; settings: MEC1, 48 h
[43] = Growth inhibition of human DOHH2 cells after 24 hrs by MTT assay; assay type: functional; settings: DOHH-2, 24 h
[44] = Growth inhibition of human Maver1 cells after 24 hrs by MTT assay; assay type: functional; settings: Maver1, 24 h
[45] = Growth inhibition of human U2932 cells after 48 hrs by MTT assay; assay type: functional; settings: U2932, 48 h
[46] = Growth inhibition of human OCI-Ly8 cells after 24 hrs by MTT assay; assay type: functional; settings: OCI-Ly8, 24 h
[47] = Growth inhibition of human GRANTA-519 cells after 48 hrs by MTT assay; assay type: functional; settings: Granta-519, 48 h
[48] = Growth inhibition of human UPN1 cells after 24 hrs by MTT assay; assay type: functional; settings: UPN1, 24 h
[49] = Growth inhibition of human SC1 cells after 48 hrs by MTT assay; assay type: functional; settings: SC-1, 48 h
PBMC = test: Induction of apoptotic cell death in human PBMCs at 1 to 10 uM after 24 hrs by Annexin V and propidium iodide staining based flow cytometry
[50] = Solubility in water; assay type: physicochemical
[51] = Growth inhibition of bortezomib-resistant human JBR cells after 24 hrs by MTT assay; assay type: functional
[52] = Growth inhibition of bortezomib-resistant human JBR cells after 48 hrs by MTT assay; assay type: functional

SMILES: CN1CCN(c2ccc(Nc3nc(N)c4cc(-c5c(Cl)cccc5Cl)c(=O)n(C)c4n3)cc2)CC1 [listing 1 of 2 here]
- Activity [1]: 3%
- inhibition [2]: 40%
- inhibition [3]: 10%
- inhibition [4]: Dose-dependent effect
- Activity [5]: -1%
- inhibition [6]: Dose-dependent effect
- inhibition [7]: Active
- Activity [8]: 9%

SMILES: Nc1nc(Nc2ccccc2)nc2[nH]c(=O)c(-c3c(Cl)cccc3Cl)cc12
- GI50 [9]: 8.8 µM
- GI50 [10]: > 100 µM
- GI50 [11]: 12.1 µM
- GI50 [12]: > 100 µM

SMILES: Cn1c(=O)c(-c2c(Cl)cccc2Cl)cc2c(N)nc(Nc3ccc(OCCN4CCOCC4)cc3)nc21
- Activity [1]: 16%
- Activity [5]: 0%
- Activity [8]: 44%

SMILES: CN1CCN(c2ccc(Nc3nc(N)c4cc(-c5c(Cl)cccc5Cl)c(=O)n(C)c4n3)cc2)CC1 [listing 2 of 2 here]
- GI50 [9]: 4.9 µM
- GI50 [13]: 3 µM
- GI50 (WSU-NHL [14]): 2.7 µM
- GI50 [15]: 3.7 µM
- GI50 [16]: 2.7 µM
- GI50 [17]: 5.9 µM
- GI50 [18]: 3 µM
- GI50 [10]: 2.6 µM
- GI50 [11]: 3.2 µM
- GI50 [19]: 3.6 µM
- GI50 [12]: 3 µM
- GI50 [20]: 2.7 µM
- GI50 [21]: 5 µM
- GI50 [22]: 5.4 µM
- GI50 (WSU-NHL [23]): 3.7 µM
- GI50 [24]: 3.6 µM
- GI50 [25]: 3.6 µM
- GI50 [26]: 3.6 µM
- GI50 [27]: 5 µM
- inhibition at 5 µM [28]: 63%
- GI50 [29]: 3 µM
- GI50 [30]: 3.7 µM
- GI50 [31]: 4.9 µM
- GI50 [32]: 3 µM
- GI50 [33]: 4.9 µM
- GI50 [34]: 5.9 µM
- GI50 [35]: 3 µM
- GI50 [36]: 5.9 µM
- GI50 [37]: 5 µM
- GI50 [38]: 5.4 µM
- GI50 [39]: 3 µM
- GI50 [40]: 3.6 µM
- GI50 [41]: 5.4 µM
- GI50 [42]: 4.9 µM
- GI50 [43]: 3.7 µM
- GI50 [44]: 3.6 µM
- GI50 [45]: 5 µM
- GI50 [46]: 5.4 µM
- GI50 [47]: 3 µM
- GI50 [48]: 3.6 µM
- GI50 [49]: 2.7 µM

SMILES: Cn1c(=O)c(-c2c(Cl)cccc2Cl)cc2c(N)nc(Nc3ccccc3)nc21
- GI50 [9]: 1.7 µM
- GI50 [10]: 0.4 µM
- GI50 [11]: 1.8 µM
- Activity (PBMC): 3%
- GI50 [12]: 0.7 µM
- solubility [50]: < 1 µg/mL
- GI50 [51]: 3.1 µM
- GI50 [52]: 0.9 µM

SMILES: Nc1nc(Nc2ccccc2)nc2c1CC(c1c(Cl)cccc1Cl)C(=O)N2 (stereo not drawn)
- GI50 [9]: 12 µM
- GI50 [10]: 5.7 µM
- GI50 [11]: > 100 µM
- GI50 [12]: 52.3 µM

SMILES: Nc1nc(N)c2c(n1)NC(=O)C(c1c(Cl)cccc1Cl)C2 (stereo not drawn)
- GI50 [9]: > 100 µM
- GI50 [10]: > 100 µM
- GI50 [11]: > 100 µM
- GI50 [12]: > 100 µM

SMILES: COc1cc(Nc2ncc(F)c(Nc3ccc4c(n3)NC(=O)C(C)(C)O4)n2)cc(OC)c1OC [R-406]
- inhibition at 5 µM [28]: 31%
- inhibition [7]: Active

SMILES: Cn1c(=O)c(-c2c(Cl)cccc2Cl)cc2c(N)nc(Nc3ccc(NCCN4CCOCC4)cc3)nc21
- Activity [1]: 10%
- Activity [5]: 0%
- Activity [8]: 31%

SMILES: CN1C(=O)C(c2c(Cl)cccc2Cl)Cc2c(N)nc(Nc3ccccc3)nc21 (stereo not drawn)
- GI50 [9]: > 100 µM
- GI50 [10]: 1.7 µM
- GI50 [11]: 67.2 µM
- GI50 [12]: 1.3 µM

SMILES: Nc1nc(Nc2ccccc2)nc2c1CC(c1c(Cl)cccc1Cl)CN2 (stereo not drawn)
- GI50 [9]: 7.5 µM
- GI50 [10]: 2.4 µM
- GI50 [11]: 4 µM
- GI50 [12]: 1.3 µM

SMILES: C=CC(=O)N1CCC[C@@H](n2nc(-c3ccc(Oc4ccccc4)cc3)c3c(N)ncnc32)C1 [IBRUTINIB]
- inhibition at 5 µM [28]: 3%
- inhibition [7]: Active

SMILES: CN1CCN(c2ccc(Nc3nc(N)c4cc(-c5c(Cl)cccc5Cl)c(=O)n(C)c4n3)cc2)CC1.CS(=O)(=O)O
- solubility [50]: 10000 µg/mL
